One compound from patent publication US20230192701A1, “BICYCLIC KINASE INHIBITORS AND USES THEREOF” (iOmx Therapeutics AG, priority 2020, published 2023) can be followed below.

Values after ≈ are worked out from the molar mass of the structure shown.

A short description of data set [1]: Kinetic solubility assay. Format: physicochemical. The conditions noted are these: aqueous buffer, kinetic from dmso stock; PBS buffer pH 7.4, 1.0% DMSO, 24 h at RT. Here is the method:
The Kinetic solubility assay was conducted as follows. 4 uL compound of the 50 mM DMSO stock was added to deep well plate containing 396 uL PBS buffer (pH 7.4). The DMSO content in the sample was 1.0%, and the compound concentration 500 μM. The sample plate was vortexed at 800 rpm for 24 h at RT on a thermomixer. At the end of the incubation period, the sample plate was centrifuged at 4000 rpm for 10 mins. 3 uL of supernatant was transferred to well containing 297 uL of ISTD in Acetonitrile water:50:50, v/v and analysed in LC-MS/MS against a calibration curve (CC).

Data set [2] can be described thus: CaCo2 permeability and efflux assay. The class given is in vitro ADME. The conditions noted are these: human, Caco-2; CaCo2, mean efflux ratio. Here is the method: (§1) To determine apparent permeability of the compounds an assay using a Caco-2 cells monolayer (cultured for 21d) in a 24-well format (poly carbonate high pore density plate with 0.4 μm pore size and a 0.7 cm2 active membrane area; Millipore) was performed as followed. 800 uL of DMEM was added to the basal compartment of the 24 well-plate and 60000 CaCo2 cells/well were seeded in the apical wells and incubated in a CO2 incubator at 37° C. for proliferation of cells. Apical to Basal permeability was determined by adding 400 uL of test compound to the apical well and 800 uL of HBSS buffer with 2% BSA to the basal well. 25 uL of basal sample was collected after 120 min and processed as stated below. Basal to Apical permeability was determined by adding 800 uL of test compound to basal well and 400 uL of HBSS buffer with 2% BSA to apical well. 25 uL of apical sample was collected after 120 min and processed as stated below. The samples were processed by diluting the donor samples 1:1 with HBSS containing 2% BSA and the receiver samples 1:1 with HBSS buffer. Samples were then precipitated with 200 uL of acetonitrile containing internal standard, vortexed for 5 min at 1000 rpm, and centrifuged at 4000 rpm for 20 min. 150 uL of supernatant was diluted with 150 uL of water and submitted for LC-MS/MS analysis, and Bi-directional (A-B and B-A) apparent permeability (Papp) was calculated.
(§2) LC-MS/MS was performed for all assays using a C18 column (50*4.6 mm, 5 um) for the CaCo2 assay, or a C18 column (50*4.6 mm, 4 um) for the other assays. The mobile phases used were 10 mM Ammonium Acetate with 0.1% Formic acid (aqueous) and 100% Acetonitrile (organic).
Background: Caco-2 cells form a polarised layer with tight junctions and transporters.

The subject of data set [3] is Caco-2 cells monolayer. The data set can be described thus: CaCo2 permeability and efflux assay. Format: in vitro ADME. The conditions noted are these: CaCo2, apical to basal, 120 min. Here is the method: as §1, §2
For data set [4], the system named is MC38 tumour cells. The data set can be described thus: TNF-sensitised cell viability assay (CellTiter-Glo), MC38. The class given is cell-based, murine. The conditions noted are these: Mus musculus, MC-38, read-out: MC38 IC50 (at 100 ng/ml rMuTNF); 100 ng/ml rMuTNF, 72 h. On the technique in general: ATP-based viability assays read luminescence as a measure of living cells.

For data set [5], the system named is 335 wild-type protein kinases. The data set can be described thus: single-point inhibition assays, residual activity (ProQinase Kinase Profiler). The class given is biochemical. The conditions noted are these: single-point 0.1 uM and 1 uM, 335 kinases. Here is the method:
Several compounds of Formula (I) described herein were also tested in single-point (0.1 uM and 1 uM) inhibition assays over a diverse set of 335 wild-type protein (ProQinase “Kinase Profiler”; ProQinase, Freiburg, Germany), in which the residual activity of each kinase was determined. […] Secondly, the residual activity of each kinase was compared to other compounds tested (in particular, against the prior art compounds PY1) by use of scatter plots.

Data set [6] can be described thus: Murine plasma protein binding (RED method). Format: in vitro ADME. The settings on record: mouse. Here is the method:
Human and mice protein plasma binding was determined using the Plasma Protein Binding by RED Method. Briefly, 200 uL of the respective plasma containing the test compound (10 uM) was spiked into the donor well (RED Chamber) of the insert. 350 uL of PBS was spiked into receiver well (white chamber). The plate was incubated at 37° C. in a thermomixer at 400 rpm for 5 hours. The samples were matrix equilibrated with opposite matrix (25 uL blank buffet/Plasma). Matrix matched samples were precipitated with 200 uL of Acetonitrile containing Internal standard. Samples were vortexed at 1000 rpm for 5 min and centrifuged at 4000 rpm for 10 min. The supernatant was diluted 2 folds with water and % bound and unbound protein and % recovery at 5 h was determined by LC-MS/MS.
as §2

For data set [7], the target named is SIK3 (Homo sapiens, UniProt Q9Y2K2). The data set can be described thus: radiometric protein kinase assay (33PanQinase Activity Assay), SIK3. Format: biochemical. The settings on record: ATP 1.0 μM, substrate RBER-CHKtide.
Sequence of SIK3 (Q9Y2K2 whole entry): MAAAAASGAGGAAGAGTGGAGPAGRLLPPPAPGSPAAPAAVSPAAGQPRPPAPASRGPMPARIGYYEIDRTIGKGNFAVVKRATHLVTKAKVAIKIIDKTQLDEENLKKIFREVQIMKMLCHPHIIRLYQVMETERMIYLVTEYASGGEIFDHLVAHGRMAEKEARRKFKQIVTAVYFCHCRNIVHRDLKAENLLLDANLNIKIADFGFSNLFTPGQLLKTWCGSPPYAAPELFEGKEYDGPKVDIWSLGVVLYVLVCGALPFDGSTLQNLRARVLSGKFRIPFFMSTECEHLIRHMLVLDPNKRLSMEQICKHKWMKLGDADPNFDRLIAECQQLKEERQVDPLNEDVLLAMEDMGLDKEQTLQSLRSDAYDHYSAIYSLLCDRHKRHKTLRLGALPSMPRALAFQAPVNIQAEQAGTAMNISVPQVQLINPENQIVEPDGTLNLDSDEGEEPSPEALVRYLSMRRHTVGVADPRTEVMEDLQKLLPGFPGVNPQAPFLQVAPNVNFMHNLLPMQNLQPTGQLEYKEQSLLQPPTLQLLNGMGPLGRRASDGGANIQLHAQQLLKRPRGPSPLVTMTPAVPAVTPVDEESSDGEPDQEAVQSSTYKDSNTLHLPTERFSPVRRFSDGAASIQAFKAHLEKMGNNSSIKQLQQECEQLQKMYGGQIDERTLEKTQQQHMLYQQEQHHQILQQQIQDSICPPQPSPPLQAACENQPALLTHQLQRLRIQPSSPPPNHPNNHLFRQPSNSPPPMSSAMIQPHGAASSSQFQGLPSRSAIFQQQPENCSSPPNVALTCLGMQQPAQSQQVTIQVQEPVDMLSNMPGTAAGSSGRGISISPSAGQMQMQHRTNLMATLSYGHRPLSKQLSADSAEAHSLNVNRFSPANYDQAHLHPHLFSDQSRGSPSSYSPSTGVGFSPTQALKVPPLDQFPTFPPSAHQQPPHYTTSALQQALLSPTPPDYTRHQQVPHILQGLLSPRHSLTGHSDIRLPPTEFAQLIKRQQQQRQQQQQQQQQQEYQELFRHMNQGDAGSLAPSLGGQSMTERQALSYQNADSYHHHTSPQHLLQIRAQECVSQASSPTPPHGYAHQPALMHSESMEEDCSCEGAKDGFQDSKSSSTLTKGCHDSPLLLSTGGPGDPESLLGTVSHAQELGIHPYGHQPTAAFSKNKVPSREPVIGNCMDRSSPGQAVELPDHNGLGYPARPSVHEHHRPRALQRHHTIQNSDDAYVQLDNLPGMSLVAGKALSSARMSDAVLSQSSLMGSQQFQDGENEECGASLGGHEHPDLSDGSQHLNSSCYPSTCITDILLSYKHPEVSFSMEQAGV

As usually defined, the solubility (kinetic) is solubility judged after dilution from a stock solution rather than from solid. One may read the efflux ratio as the permeability from basolateral to apical divided by that in the opposite direction, in the common usage.

In data set [1], `COc1ccc(N2C(=O)N(c3c(C)csc3Cl)Cc3cnc(Nc4ccc(C5CCN(C)CC5)cc4OC)nc32)nc1` [AA1, 3-(2-chloro-4-methylthiophen-3-yl)-7-((2-methoxy-4-(1-methylpiperidin-4-yl)phenyl)amino)-l-(5-methoxypyridin-2-yl)-3,4-dihydropyrimido[4,5-d]pyrimidin-2(1H)-one] came in with a solubility (kinetic) at 24 h of 6.9 µM (≈ 4.18 µg/mL). The efflux ratio at 120 min in data set [2] stood at 2.4. Besides, the “A > B(10 EE-06 cm/s)” value in data set [3] is recorded as 10.5 10 EE-06 cm/s. Also, the IC50 in data set [4] lay in the range of 1000 to 1500 nM. In data set [5], the “overall kinase profile compared to prior art compound PY1” value is given as “most similar overall kinase profile to the prior art compound PY1”; the “particular kinases with different inhibition than PY1” value is “BLK, SIK3 and TEC”. This compound also gave a recovery at 5 h, 10 uM in data set [6] of 40%. The IC50 in data set [7] is 200 to 400 nM.
